This note sets out measurements from PMC4729137, “Functional analysis of androgen receptor mutations that confer anti-androgen resistance identified in circulating cell-free DNA from prostate cancer patients” (Genome Biology, 2016).

One experiment deals with T1, H875Y/T878A-AR (Homo sapiens, UniProt P10275, H875Y/T878A).
T1 sequence (P10275 1-920 H875Y/T878A): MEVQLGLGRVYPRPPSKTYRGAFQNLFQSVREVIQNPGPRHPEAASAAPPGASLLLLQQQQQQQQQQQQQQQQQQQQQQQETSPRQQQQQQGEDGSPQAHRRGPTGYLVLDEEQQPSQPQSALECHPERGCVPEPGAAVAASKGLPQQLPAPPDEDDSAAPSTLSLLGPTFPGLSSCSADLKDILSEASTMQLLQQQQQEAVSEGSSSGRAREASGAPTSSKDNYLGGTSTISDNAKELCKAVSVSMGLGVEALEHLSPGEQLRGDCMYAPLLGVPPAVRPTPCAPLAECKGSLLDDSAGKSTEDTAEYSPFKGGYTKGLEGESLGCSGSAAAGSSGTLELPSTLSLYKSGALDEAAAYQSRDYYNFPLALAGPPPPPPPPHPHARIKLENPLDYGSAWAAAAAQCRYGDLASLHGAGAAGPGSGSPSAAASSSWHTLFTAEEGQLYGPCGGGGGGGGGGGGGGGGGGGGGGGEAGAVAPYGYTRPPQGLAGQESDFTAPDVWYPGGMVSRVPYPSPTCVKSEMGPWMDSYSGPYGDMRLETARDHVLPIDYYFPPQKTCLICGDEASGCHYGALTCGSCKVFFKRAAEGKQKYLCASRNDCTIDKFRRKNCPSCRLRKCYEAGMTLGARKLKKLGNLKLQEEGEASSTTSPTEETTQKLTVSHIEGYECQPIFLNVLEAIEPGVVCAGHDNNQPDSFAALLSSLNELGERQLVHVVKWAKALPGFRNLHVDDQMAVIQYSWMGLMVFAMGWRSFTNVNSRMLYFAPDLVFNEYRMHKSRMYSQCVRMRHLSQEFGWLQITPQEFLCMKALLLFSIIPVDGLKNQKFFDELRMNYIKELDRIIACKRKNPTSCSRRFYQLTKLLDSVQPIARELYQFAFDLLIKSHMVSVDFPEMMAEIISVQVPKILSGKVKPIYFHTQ
The class given is cell-based. Particulars: AR mutant H875Y/T878A; transfected PC3 cells; 0.1 nM R1881; drug 0 to 50 μM. The text has this:
(§1) Full-length human AR (WT-AR) was encoded on a pcDNA3.1 expression plasmid (Life technologies). The LBD point mutations (single and multiple) were generated using the QuikChange II Site-Directed Mutagenesis Kit (Agilent Technologies) as per manufacturer’s instructions using WT-AR as the template. The mutagenic oligonucleotide primers were designed individually with the desired mutation in the middle of the primer with approximately 10 to 15 bases of correct sequence on both sides.
(§2) PC3 cells were seeded and transfected as described above. […] A non-stimulated/no R1881 control was used. After 24 h, cells were lysed and AR-dependent luciferase activity was quantified. Each concentration was assayed in quadruplicate n = 4, with a biological replicate of n = 3. Results were averaged and normalized by expressing them as a percentage of WT AR activity.

Another experiment addresses T2, H875Y-AR (Homo sapiens, UniProt P10275, H875Y).
T2 sequence (P10275 1-920 H875Y): T1 sequence (P10275 1-920 H875Y/T878A) with A878T
In kind it is cell-based. Particulars: AR mutant H875Y; transfected PC3 cells; 0.1 nM R1881; drug 0 to 50 μM.
Text: as §1, §2

Numbering of substitutions follows the chain as printed.

As for `CC(C)(O)C(=O)Nc1ccc([N+](=O)[O-])c(C(F)(F)F)c1` [Hydroxyflutamide, hydroxyflutamide], the “Agonist response to treatment” value at H875Y/T878A-AR and at H875Y-AR was “Yes” each time.
